The record followed here is patent publication US11564919B1, “Small molecule inhibitors for treatment of alpha viruses” (priority 2021, dated 2023).

One series relates to VEEV TC-83. Type of series: cell-based, Venezuelan Equine Encephalitis Virus.
Another series deals with A549 cells. The conditions noted are these: 30 μM, 48 hours.
The subject of the next series is HeLa cells. The conditions noted are these: 30 μM, 48 hours.
For another series, the system named is Zika virus (ZIKV). Type of series: cell-based.
The subject of a further series is RVFV MP12. Type of series: cell-based, Rift Valley fever virus.
Series [1] concerns CHIKV 181/25. Type of series: cell-based, Chikungunya virus.
Another series deals with CHIKV-GFP reporter virus. In words: microbe, parasite or virus in culture. In kind it is cell-based, Chikungunya virus (CHIKV) strain 181/25. The conditions noted are these: for IC50: Chikungunya virus, HeLa, read-out: IC50 against CHIKV-GFP reporter virus.
Series [2] has as its system CHIKV 181/25. In kind it is cell-based, Chikungunya virus. This is another data set of the same source.

Entries after “also recorded” stand apart in the source; their conditions may differ.

Take `Cn1c(=N)sc2c3ccccc3ccc21` [Compound IV, 3-methyl-2H,b3H-naphtho[2,1-d][1,3]thiazol-2-imine]: in the series with VEEV TC-83, the “percentage of VEEV TC-83 infected cells” value is on record as “reduced the percentage of VEEV TC-83 infected cells”. The “reduction of A549 cell viability” value in the series with A549 cells is on record as 29%. For the same compound, in the series on HeLa cells, the “reduction of HeLa cell viability” value turned out to be 23.8%. Also, in the series with Zika virus (ZIKV), the ZIKV viral titer entry was “strong reduction”. In addition, the “viral titer of RVFV” value in the series with RVFV MP12 is “significantly reduced titer”. In addition, the “CHIKV 181/25 viral titer by time of compound addition” value (“CHIKV 181/25 viral titer by time” below) in the series with CHIKV 181/25 [1] was “strongest reduction with pre-treatment, with lessened efficacy at each consecutive timepoint; also recorded: consecutively reduced levels of efficacy at later timepoints”. For the same compound, in the series with CHIKV-GFP reporter virus, the “CHIKV-GFP fluorescence, relative percent infection” value is reported as “greater inhibition of virus infection in HeLa cells” and the IC50 was found to be 2590 nM.

`O=C(/C=C/c1ccc2c(c1)OCO2)N1CCN(Cc2nc(-c3ccco3)cs2)CC1` [Compound I, (2E)-3-(2H-1,3-benzodioxol-5-yl)-1-(4-{[4-(furan-2-yl)-1,3-thiazol-2-yl]methyl}piperazin-1-yl)prop-2-en-1-one]: the “VEEV TC-83 infection” value with VEEV TC-83 is “the only compound reducing VEEV TC-83 infection”. Moreover, the ZIKV viral titer entry with Zika virus (ZIKV) was “no obvious reduction”. The “viral titer of RVFV” value with RVFV MP12 is “minimal effectiveness”. In addition, the “CHIKV 181/25 viral titer by time” value with CHIKV 181/25 [1] was “relatively similar reduction of viral titer across all timepoints”. For the same compound, in the series on CHIKV-GFP reporter virus, the “CHIKV-GFP fluorescence, relative percent infection” value is “more effective in A549 cells” and the half-inhibitory concentration (IC50) came to 10900 nM.

Regarding `Sc1nnc2c(n1)[nH]c1ccccc12` [Compound III, 5H-[1,2,4]Triazino[5,6-b]indole-3-thiol], the “percentage of VEEV TC-83 infected cells” value in the series with VEEV TC-83 is “reduced the percentage of VEEV TC-83 infected cells”. Besides, the ZIKV viral titer entry in the series on Zika virus (ZIKV) is reported as “some minimal effect”. Also, in the series on CHIKV 181/25 [2], the “infection of CHIKV 181/25” value is “didn't reduce infection”. Further, in the series on CHIKV 181/25 [1], the “CHIKV 181/25 viral titer by time” value is “relatively similar reduction of viral titer across all timepoints”. In the series with CHIKV-GFP reporter virus, the 50% inhibitory concentration (IC50) was 2820 nM.
